{"source": "patent US20240108699A1", "about": "(priority 2022, published 2024)", "origin": "cited, not measured here", "conditions": "in vivo"}
{"substance": "Botulinum toxin complex A [BoNT-A]", "values": [{"measurement": "time for which effects are maintained", "value": "three to six"}]}
